Data: article PMC2994747, “Molecular Characterization of c-Abl/c-Src Kinase Inhibitors Targeted against Murine Tumour Progenitor Cells that Express Stem Cell Markers” (PLoS ONE, 2010)

Key:
A549 [1] = experiment: Cell cycle analysis by flow cytometry; assay type: cell-based, human; conditions: IC50 concentration, 96 h
Method in brief: (§1)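 Trypsinized cells, PBS wash, resuspend in kit buffer; spin, solution A 10 min RT; add solution B, incubate; add solution C, 4°C, dark. Kept on ice, light-protected, until flow cytometry.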

CaCo2 [2] = experiment: Cell cycle analysis by flow cytometry; assay type: cell-based, human; conditions: IC50 concentration, 96 h
Method in brief: as §1

HepG2 = experiment: Cell cycle analysis by flow cytometry; assay type: cell-based, human; conditions: IC50 concentration, 96 h
Method in brief: as §1

A2C12 = experiment: Western blot, semi-quantitative protein expression; assay type: cell-based, mouse
Protocol: (§2) For the Western Blot analysis, cells were rinsed and lysed as previously described. An amount of 25 µg protein was used for SDS-PAGE. Antibodies for c-Abl (sc-131), Actin (sc-1616), Cdc2-p34 (sc-8395), EPS15 (sc-1840), FAK (sc-558), c-Fos (sc-52), p38 (sc-7972), p53 (sc-6243) and STAT5 (sc-835x) were obtained from Santa Cruz (Santa Cruz Biotechnology, Heidelberg, Germany), while c-Src (2109) and phospho-Src Y416 (2101) were purchased from Cell Signaling (Cell Signaling Technology, Frankfurt a. M., Germany). The EGFR (06-847), phospho-EGFR Y992 (07-821) and phospho-EGFR Y1045 (04-284) stem from Upstate (Upstate, Schwalbach, Germany) and the hnRNP-K (A300-676A) from Bethyl Labs (Bethyl Laboratories, Montgomery, Texas, USA). Finally p73 (IMG-246) was supplied by Imgenex (Imgenex, Hamburg, Germany). Depending on the primary antibody the secondary antibodies were either horseradish peroxidase-conjugated anti-mouse (AP 160P), anti-rabbit (AP 132P) or anti-sheep (AP 147P) (Chemicon, Schwalbach, Germany).
(§3) Semi-quantitative analysis were carried out with Kodak 1D Image Analysis Software in reference to the vehicle treated control cells (see supplementary table S7).

BetaD5 = experiment: Western blot, semi-quantitative protein expression; assay type: cell-based, mouse
Protocol: as §2, §3

GammaA3 = experiment: Western blot, semi-quantitative protein expression; assay type: cell-based, mouse
Protocol: as §2, §3

GammaD12 = experiment: Western blot, semi-quantitative protein expression; assay type: cell-based, mouse
Protocol: as §2, §3

A549 [3] = experiment: Western blot, semi-quantitative protein expression; assay type: cell-based, human
Protocol: as §2, §3

CaCo2 [4] = experiment: Western blot, semi-quantitative protein expression; assay type: cell-based, human
Protocol: as §2, §3

## CSc1nc(NCCc2ccc(Cl)cc2)c2cnn(CC(Cl)c3ccccc3)c2n1 (centres unmarked) [Si57]
A549 [1]
  Cells in G1 phase: 70.5%
  Cells in G2 phase: 5.5%
  Cells in S phase: 24%
CaCo2 [2]
  Cells in G1 phase: 41.7%
  Cells in G2 phase: 18.1%
  Cells in S phase: 40.2%
HepG2
  Cells in G1 phase: 63.9%
  Cells in G2 phase: 8.1%
  Cells in S phase: 28%
A2C12
  Actin protein expression: 97
  EGFR Y992-p protein expression: 117
  EGFR Y1045-p protein expression: 29
  EGFR protein expression: 66
  EPS15 protein expression: 89
  FAK protein expression: 47
  STAT5 protein expression: 104
  c-Abl protein expression: 49
  c-Fos protein expression: 82
  c-Src protein expression: 92
  hnRNP-K protein expression: 104
  p38 protein expression: 59
  p53 protein expression: 60
  p73 protein expression: 40
BetaD5
  Actin protein expression: 98
  EGFR Y992-p protein expression: 116
  EGFR Y1045-p protein expression: 65
  EGFR protein expression: 61
  EPS15 protein expression: 781
  FAK protein expression: 98
  STAT5 protein expression: 192
  c-Abl protein expression: 89
  c-Fos protein expression: 58
  c-Src Y416-p protein expression: 19
  c-Src protein expression: 153
  hnRNP-K protein expression: 126
  p38 protein expression: 76
  p53 protein expression: 248
GammaA3
  Actin protein expression: 105
  EGFR Y992-p protein expression: 90
  EGFR Y1045-p protein expression: 15
  EGFR protein expression: 39
  EPS15 protein expression: 102
  FAK protein expression: 101
  STAT5 protein expression: 93
  c-Abl protein expression: 62
  c-Fos protein expression: 79
  c-Src Y416-p protein expression: 256
  c-Src protein expression: 104
  hnRNP-K protein expression: 93
  p38 protein expression: 38
  p53 protein expression: 54
GammaD12
  Actin protein expression: 106
  EGFR Y992-p protein expression: 62
  EGFR Y1045-p protein expression: 96
  EGFR protein expression: 89
  EPS15 protein expression: 135
  FAK protein expression: 106
  STAT5 protein expression: 110
  c-Abl protein expression: 212
  c-Fos protein expression: 70
  c-Src Y416-p protein expression: 90
  c-Src protein expression: 103
  hnRNP-K protein expression: 100
  p38 protein expression: 29
  p53 protein expression: 58
A549 [3]
  Actin protein expression: 92
  Cdc2-p34 protein expression: 55
  EGFR Y992-p protein expression: 58
  EGFR Y1045-p protein expression: 6.66
  EGFR protein expression: 9
  EPS15 protein expression: 70
  FAK protein expression: 154
  STAT5 protein expression: 34
  c-Abl protein expression: 43
  c-Fos protein expression: 49
  c-Src Y416-p protein expression: 65
  c-Src protein expression: 100
  hnRNP-K protein expression: 83
  p38 protein expression: 27
  p53 protein expression: 33
  p73 protein expression: 24
CaCo2 [4]
  Actin protein expression: 131
  Cdc2-p34 protein expression: 119
  EGFR Y992-p protein expression: 163
  EGFR Y1045-p protein expression: 259
  EGFR protein expression: 37
  EPS15 protein expression: 122
  FAK protein expression: 111
  STAT5 protein expression: 123
  c-Abl protein expression: 217
  c-Fos protein expression: 129
  c-Src Y416-p protein expression: 155
  c-Src protein expression: 106
  hnRNP-K protein expression: 98
  p38 protein expression: 84
  p53 protein expression: 70
  p73 protein expression: 78

## Clc1cccc(Nc2nc(SC3CCCC3)nc3c2cnn3CC(Cl)c2ccccc2)c1 (centres unmarked) [Si135]
A549 [1]
  Cells in G1 phase: 50.8%
  Cells in G2 phase: 8.6%
  Cells in S phase: 40.6%
CaCo2 [2]
  Cells in G1 phase: 42.1%
  Cells in G2 phase: 12.1%
  Cells in S phase: 45.8%
HepG2
  Cells in G1 phase: 58%
  Cells in G2 phase: 9.5%
  Cells in S phase: 32.5%
A2C12
  Actin protein expression: 88
  EGFR Y992-p protein expression: 79
  EGFR Y1045-p protein expression: 69
  EGFR protein expression: 30
  EPS15 protein expression: 83
  FAK protein expression: 71
  STAT5 protein expression: 95
  c-Abl protein expression: 64
  c-Fos protein expression: 52
  c-Src protein expression: 95
  hnRNP-K protein expression: 87
  p38 protein expression: 33
  p53 protein expression: 58
  p73 protein expression: 43
BetaD5
  Actin protein expression: 92
  EGFR Y992-p protein expression: 68
  EGFR Y1045-p protein expression: 148
  EGFR protein expression: 116
  EPS15 protein expression: 759
  FAK protein expression: 114
  STAT5 protein expression: 163
  c-Abl protein expression: 101
  c-Fos protein expression: 98
  c-Src Y416-p protein expression: 20
  c-Src protein expression: 135
  hnRNP-K protein expression: 115
  p38 protein expression: 56
  p53 protein expression: 119
GammaA3
  Actin protein expression: 101
  EGFR Y992-p protein expression: 70
  EGFR Y1045-p protein expression: 31
  EGFR protein expression: 25
  EPS15 protein expression: 102
  FAK protein expression: 104
  STAT5 protein expression: 80
  c-Abl protein expression: 65
  c-Fos protein expression: 112
  c-Src Y416-p protein expression: 216
  c-Src protein expression: 107
  hnRNP-K protein expression: 90
  p38 protein expression: 48
  p53 protein expression: 78
GammaD12
  Actin protein expression: 110
  EGFR Y992-p protein expression: 181
  EGFR Y1045-p protein expression: 132
  EGFR protein expression: 95
  EPS15 protein expression: 149
  FAK protein expression: 117
  STAT5 protein expression: 118
  c-Abl protein expression: 152
  c-Fos protein expression: 103
  c-Src Y416-p protein expression: 140
  c-Src protein expression: 89
  hnRNP-K protein expression: 75
  p38 protein expression: 18
  p53 protein expression: 108
A549 [3]
  Actin protein expression: 98
  Cdc2-p34 protein expression: 82
  EGFR Y992-p protein expression: 128
  EGFR Y1045-p protein expression: 23
  EGFR protein expression: 45
  EPS15 protein expression: 56
  FAK protein expression: 130
  STAT5 protein expression: 80
  c-Abl protein expression: 88
  c-Fos protein expression: 50
  c-Src Y416-p protein expression: 110
  c-Src protein expression: 94
  hnRNP-K protein expression: 83
  p38 protein expression: 62
  p53 protein expression: 59
  p73 protein expression: 55
CaCo2 [4]
  Actin protein expression: 120
  Cdc2-p34 protein expression: 74
  EGFR Y992-p protein expression: 113
  EGFR Y1045-p protein expression: 104
  EGFR protein expression: 44
  EPS15 protein expression: 79
  FAK protein expression: 82
  STAT5 protein expression: 120
  c-Abl protein expression: 155
  c-Fos protein expression: 164
  c-Src Y416-p protein expression: 129
  c-Src protein expression: 125
  hnRNP-K protein expression: 90
  p38 protein expression: 64
  p53 protein expression: 69
  p73 protein expression: 66
